Reference: US20070269406A1, “Transcatheter tumor immunoembolization” (priority 2005, published 2007)

Assays:
IL-12 p70 = IL-12 p70 production by LPS/TNF-activated bone marrow derived DC after siRNA transfection (ELISA); format: cell-based, C57/BL6 mice; settings: day-7 bone marrow derived C57/BL6 DC; LPS/TNF activation day 8; supernatants day 10; FIG. 7
Description: At Day 0, bone marrow cells were flushed from the femurs and tibias of C57/BL6 mice, washed and cultured in 6-well plates (Corning, N.Y.) at 4×10^6 cells/well in 4 ml of complete medium (RPMI 1640 supplemented with 2 mM L-glutamine, 100 U/ml penicillin, 100 μg of streptomycin, 50 μM 2-ME, and 10% FCS (all from Life Technologies, Ontario, Canada) supplemented with recombinant GM-CSF (10 ng/ml; PeproTech, Rocky Hill, N.J.) and recombinant mouse IL-4 (10 ng/ml; PeproTech). All cultures were incubated at 37° C. in 5% humidified CO2. Non-adherent cells were removed after 48 h of culture (Day 2) and fresh medium was added. After 7 days of culture, >90% of the cells expressed the characteristic DC-specific marker CD11c as determined by FACS. DC were washed and plated in 24-well plates at a concentration of 2×10^5 cells/well in 400 μl of serum-free RPMI 1640. Transfection with GenePorter, lipiodol, or naked siRNA was performed as described below on day 7 of culture. […]
(§1) The supernatants from recall response T cell cultures or MLR were harvested and assessed for DC cytokines (IL-12p70, IL-10) and T cell cytokines (IFN-, IL-4) by ELISA. Cytokine-specific ELISA (Endogen, Rockford, Ill.) was used for detecting cytokine concentrations in culture supernatants according to the manufacturer's instructions using a Benchmark Microplate Reader (Bio-Rad, Hercules, Calif.). […]

[1] = test system: BALB/c T cells responding to C57/BL6 DC; test: Mixed lymphocyte reaction, proliferation of responding allogeneic T cells; format: cell-based, mice; settings: 3 day MLR; lipiodol-transfected C57/BL6 DC with naive BALB/c splenocytes; FIG. 9
Description: C57/BL6 DC after transfection were irradiated (3,000 rad) and seeded in triplicate at various concentrations in a flat-bottom 96-well plate (Coming) for use as stimulator cells. Splenic T cells from BALB/c mice were isolated by gradient centrifugation over Ficoll-Paque (Amersham Pharmacia Biotech, Quebec) and T cell nylon wool column purification, and added as responders (5×10^5 cells/well). The mixed lymphocytes were cultured at 37° C. for 72 h in 200 μl of RPMI 1640 supplemented with 10% FCS, 100 U/ml of penicillin, and 100 μg/ml of streptomycin and pulsed with 1 μCi/well of ^3H-labelled thymidine (Amersham Pharmacia Biotech) for the last 16 h of culture. Cells were harvested onto glass fiber filters, and the radioactivity incorporated was quatitated using a Wallac Betaplate liquid scintillation counter (Beckman, Fullerton, Calif.). Results were expressed as the mean counts per min of triplicate cultures±SEM. In some experiments anti-IL-10 (JES5 2A5, Pharmingen) or isotype control antibody were added for the duration of the MLR at a concentration of 5 ug/ml.
Since the specific function of DC in vivo is stimulation of T cell responses, we sought to determine whether the siRNA/lipiodol mixture had effects on inhibition of mixed lymphocyte reaction (MLR).

splenic lymphocytes = test: Ovalbumin-specific proliferative recall response of splenic lymphocytes after intrahepatic immunization; format: in vivo, BALB/c mice; settings: intrahepatic (portal vein) ovalbumin immunization; boosted day 7 with ovalbumin/CFA; splenic lymphocytes 14 days after boost; FIG. 1
Source text: Four groups of BALB/c mice (The Jackson Laboratory, Bar Harbor, ME) of 6-8 weeks of age consisted of Group 1 intraperitoneal administration of ovalbumin, Group 2 intrahepatic administration of ovalbumin, Group 3 intrahepatic administration of ovalbumin together with lipiodol, and Group 4 intrahepatic administration of ovalbumin together with lipiodol and Poly (I:C).
Mice in Group 1(5 mice per group) where administered one hundred micrograms of ovalbumin (grade V; Sigma Aldrich) dissolved in 0.1 mL of 0.9% saline solution intraperitoneally. The following procedures were performed for mice receiving intrahepatic immunization: Mice were anesthetized with an intraperitoneal injection of ketamin at a concentration of 0.075 mg/g and medetomidine 0.005 mg/g (Sigma Aldrich, St Louis, Mo.). A midline abdominal incision was made, and the viscera were exposed. One hundred micrograms of ovalbumin was dissolved in 0.1 mL of 0.9% saline solution was injected into the portal vein with a 30-gauge needle for mice in Group 2. Mice in Group 3 received one hundred micrograms of ovalbumin dissolved in 0.1 mL of lipiodol (Guerbet, Roissy CdG Cedex, France). […] Cells were harvested onto glass fiber filters, and the radioactivity incorporated was quantitated using a Wallac Betaplate liquid scintillation counter. Results were expressed as the mean cpm of triplicate cultures±SEM. […]

[2] = test system: CD4 T cells from draining lymph nodes; test: KLH proliferative recall response after immunization with siRNA/lipiodol, CFA and KLH; format: in vivo, C57BL/6 mice; settings: lipiodol/CFA composition with KLH, identical protocol to Example 10; FIG. 15
Description: (§2) C57/BL6 mice were immunized intradermally at the interior side of both hind legs with 100 μl of KLH or ovalbumin (1 μg/μl) emulsified in CFA (Difco Laboratories, Detroit, Mich.) in the presence or absence of 10 nMol siRNA and 10% lipiodol. After 14 days mice were sacrificed and T cells extracted as described above.
(§3) Proliferative recall responses to KLH and ovalbumin in immunized mice were assessed by sacrificing C57/BL6 mice 14 days after immunization with antigen-loaded DC. T cells were purified from suspensions of lymph nodes using CD4+ T cell column (R&D Systems) after washing in PBS. Purified T cells were cultured in 96 well plates with irradiated syngeneic splenocytes in triplicate and mixed with serial dilutions of KLH or OVA at concentrations ranging from 0-10 ug/ml. Following a 72-h incubation, 1 μCi of [^3H]thymidine (Amersham) was added to each well for 16 h. Using an automated cell harvester, the cells were collected onto glass microfiber filter, and the radioactive labeling incorporation was measured by a Wallac Betaplate liquid scintillation counter.
Accordingly, we used the KLH recall response as an indicator. C57BL/6 mice were immunized with the IL-12 siRNA/lipiodol mixture combined with CFA and KLH. […]

IFN-γ = test: KLH recall response supernatants, IFN-γ ELISA; format: in vivo, C57BL/6 mice; settings: 14 days after immunization with siRNA/lipiodol, CFA and KLH, supernatants by ELISA, FIG. 13, FIG. 16
Description: as §2
as §3, with “Following a 72-h incubation, 1 μCi of [^3H]thymidine (Amersham) was added to each well for 16 h.” left out
as §1

IL-4 = test: KLH recall response supernatants, IL-4 ELISA; format: in vivo, C57BL/6 mice; settings: 14 days after immunization with siRNA/lipiodol, CFA and KLH, supernatants by ELISA, FIG. 14, FIG. 17
Description: as §2
as §3, with “Following a 72-h incubation, 1 μCi of [^3H]thymidine (Amersham) was added to each well for 16 h.” left out
as §1

[3] = listed as Lipiodol-siRNA targeting IL-10

mismatched siRNA: mismatched (mixed) control sequence (AACTGCCAGATGGATGGTGAC) (SEQ ID NO: 3) (listed as DNA, chemistry not given here) [reference compound]
inhibition of IL-12 production (IL-12 p70): no inhibitory effect
proliferation of responding T cells / allostimulatory ability of DC in MLR [1]: not the mismatched (mixed) control inhibited proliferation

siRNA specific for IL-12p35: siRNA specific for IL-12p35 (AACCUGCUGAAGACCACAGAU) (SEQ ID NO: 1), Dharmacon (listed as RNA, chemistry not given here)
inhibition of IL-12 production (IL-12 p70): > 30%
proliferation of responding T cells / allostimulatory ability of DC in MLR [1]: inhibited proliferation

Poly (I:C)
proliferative recall response to ovalbumin ([3H]thymidine) (splenic lymphocytes): profound stimulation

siRNA targeting IL-10: siRNA specific for IL-10 (AATAAGCTCCAAGAGAAAGGC) (SEQ ID NO: 2), delivered in vivo in a lipiodol/CFA composition (lipiodol/CFA formulation, further chemistry not given here)
recall proliferative response to KLH [2]: increased
IFN-γ production in KLH recall response (IFN-γ): enhanced
IFN-γ production in KLH recall response (IFN-γ; [3]): Increased
IL-4 production in KLH recall response (IL-4): reduced
IL-4 production in KLH recall response (IL-4; [3]): Decreased
